Results taken from patent EP3319959B1, “HETERO-HALO INHIBITORS OF HISTONE DEACETYLASE” (Alkermes, Inc., priority 2015, dated 2017).

Test system: recombinant human HDACs
Experiment: HDAC enzymatic assay (LabChip capillary electrophoresis)
Assay type: biochemical
Settings: 5 nM HDAC enzyme, 1 uM substrate, 5 hours pre-incubation, 17 hours reaction at 25°C; isoform not given
Procedure: All recombinant human HDACs were purchased from BPS Bioscience. The substrate, FAM-TSRHK(AC)KL-CONH, was synthesized at NanoSyn. Final assay reactions contained 100 mM HEPES (pH 7.5), 50 mM KCl, 0.1% BSA, 0.01% Triton X-100, 1% DMSO, 1 uM substrate and 5 nM HDAC enzyme. Enzyme and compounds were pre-incubated at 25°C for 5 hours and reactions were initiated by addition of substrate. 10 uL reactions were incubated for 17 hours at 25°C and terminated by the addition of 40 uL of buffer containing 100 mM HEPES (pH 7.5), 0.1% BSA, 0.01% Triton X-100 and 0.05% SDS. Substrate and product peptides present in each sample were separated electrophoretically using the LabChip 3000 capillary electrophoresis instrument. Change in the relative fluorescence intensity of the substrate and product peaks reflects enzyme activity. Reaction progress was determined as the product to sum ratio (PSR): P/(S+P), where P is the peak height of the product peptide and S is the peak height of the substrate peptide. Reactions were performed in duplicate at 12 concentrations, (3X serial dilutions starting at 30 uM). IC50 values were calculated using a 4 Parameter Logistic Model.

Row | Compound | IC50 [µM]
1 | Nc1ccc(-c2ccc(F)cc2)nc1NC(=O)N1CCN(C(=O)[C@@H]2C[C@H]2c2ccccc2)CC1 (stereo in doubt) [Compound 225] | 0.5 to 5
2 | Nc1ccc(-c2ccc(F)cc2)nc1NC(=O)[C@H]1[C@@H]2CN(C3COC3)C[C@@H]21 (stereo in doubt) [Compound 239] | > 5
3 | CN1CC(N2C[C@@H]3[C@H](C2)[C@H]3C(=O)Nc2nc(-c3ccc(F)cc3)ccc2N)C1 (stereo in doubt) [Compound 241] | > 5
4 | Nc1ccc(-c2ccc(F)cc2)nc1NC(=O)[C@H]1[C@@H]2CN(C3CCOCC3)C[C@@H]21 (stereo in doubt) [Compound 264] | > 5
5 | Cn1cc(CN2CCCC3(CCN(C(=O)Nc4nn(-c5ccc(F)cc5)cc4N)C3)C2)cn1 (stereo not shown) [Compound 123] | > 5
6 | COc1cccc(CN2CCCC3(CCN(C(=O)Nc4nn(-c5ccc(F)cc5)cc4N)C3)C2)c1 (stereo not shown) [Compound 124] | > 5
7 | Nc1cn(-c2ccc(F)cc2)nc1NC(=O)N1CCN(C(=O)[C@@H]2C[C@H]2c2ccccc2)CC1 [Compound 125] | 0.5 to 5
8 | Cc1cnc(C(=O)Nc2nn(-c3ccccc3)cc2N)s1 [Compound 126] | 0.5 to 5
9 | Nc1ccc(-c2ccc(F)cc2)nc1NC(=O)N1CC2CC(N3CCC3)CC2C1 (stereo not shown) [Compound 143] | 0.5 to 5
10 | Nc1ccc(-c2ccc(F)cc2)nc1NC(=O)N1Cc2cnc(N3CCC3)cc2C1 [Compound 147] | 0.1 to 0.5
11 | Nc1ccc(-c2ccc(F)cc2)nc1NC(=O)N1Cc2cnc(N3CCOCC3)cc2C1 [Compound 150] | 0.1 to 0.5
12 | Cc1cc2c(cn1)CN(C(=O)Nc1nc(-c3ccc(F)cc3)ccc1N)C2 [Compound 151] | 0.1 to 0.5
13 | CN1CC(N2CC3CN(C(=O)Nc4nc(-c5ccc(F)cc5)ccc4N)CC3C2)C1 (stereo not shown) [Compound 152] | 0.5 to 5
14 | CN1CCc2sc(C(=O)Nc3nc(-c4ccc(F)cc4)ccc3N)nc2C1 [Compound 153] | 0.1 to 0.5
15 | Nc1ccc(-c2ccc(F)cc2)nc1NC(=O)N1Cc2cc(N3CCC3)cnc2C1 [Compound 157] | 0.1 to 0.5
16 | Nc1ccc(-c2ccc(F)cc2)nc1NC(=O)N1Cc2cc(N3CCOCC3)cnc2C1 [Compound 158] | 0.1 to 0.5
17 | CN1CCN(c2cc3c(cn2)CN(C(=O)Nc2nc(-c4ccc(F)cc4)ccc2N)C3)CC1 [Compound 160] | 0.1 to 0.5
18 | Nc1ccc(-c2cccnc2)nc1NC(=O)c1nc2c(s1)CCN(CCF)C2 [Compound 164] | 0.5 to 5
19 | Nc1ccc(-c2ccc(F)cc2)nc1NC(=O)c1nc2c(s1)CCN(CCF)C2 [Compound 165] | 0.1 to 0.5
20 | CN(C)CCN1CC2CN(C(=O)Nc3nc(-c4ccc(F)cc4)ccc3N)CC2C1 (stereo not shown) [Compound 166] | 0.5 to 5
21 | Nc1ccc(-n2cccn2)nc1NC(=O)N1CC2CN(CCF)CC2C1 (stereo not shown) [Compound 167] | > 5

Row | Compound | IC50 [µM]
22 | CN1CCN(Cc2cnc3c(c2)CN(C(=O)Nc2nc(-c4ccc(F)cc4)ccc2N)C3)CC1 [Compound 168] | 0.1 to 0.5
23 | CN1CCC(N2CC3CN(C(=O)Nc4nc(-c5ccc(F)cc5)ccc4N)CC3C2)CC1 (stereo not shown) [Compound 169] | 0.5 to 5
24 | Cc1ccc(C2CN(C(=O)Nc3nc(-c4ccc(F)cc4)ccc3N)C2)cc1 [Compound 170] | 0.5 to 5
25 | Nc1ccc(-c2cccnc2)nc1NC(=O)N1CCC2(CCCNC2)C1 (stereo not shown) [Compound 171] | > 5
26 | Nc1ccc(-c2ccc(F)cc2)nc1NC(=O)N1CC2CC(NC3COC3)CC2C1 (stereo not shown) [Compound 172] | 0.5 to 5
27 | COc1ccc(-c2ccc(N)c(NC(=O)N3Cc4ccncc4C3)n2)cc1 [Compound 173] | 0.5 to 5
28 | Nc1ccc(-c2ccco2)nc1NC(=O)N1CC2CN(CCF)CC2C1 (stereo not shown) [Compound 174] | > 5
29 | Nc1ccc(-c2ccco2)nc1NC(=O)N1CC2CN(Cc3ccccc3F)CC2C1 (stereo not shown) [Compound 175] | > 5
30 | Nc1ccc(-c2ccc(F)cc2)nc1NC(=O)N1CC2CN(Cc3ccccc3F)CC2C1 (stereo not shown) [Compound 176] | 0.5 to 5
31 | Nc1ccc(-n2cccn2)nc1NC(=O)N1CC2CN(Cc3ccccc3F)CC2C1 (stereo not shown) [Compound 177] | > 5
32 | CN1CCN(Cc2cccc3c2CN(C(=O)Nc2nc(-c4ccc(F)cc4)ccc2N)C3)CC1 [Compound 178] | > 5
33 | CN1CCN(C2CC3CN(C(=O)Nc4nc(-c5ccc(F)cc5)ccc4N)CC3C2)CC1 (stereo not shown) [Compound 179] | 0.5 to 5
34 | Nc1ccc(-c2ccc(F)cc2)nc1NC(=O)N1CC2CC(N3CCOCC3)CC2C1 (stereo not shown) [Compound 181] | > 5
35 | Nc1ccc(-c2ccco2)nc1NC(=O)N1CC2CN(C3COC3)CC2C1 (stereo not shown) [Compound 182] | > 5
36 | Nc1ccc(-c2ccc(F)cc2)nc1NC(=O)N1CC2CN(CCF)CC2C1 (stereo not shown) [Compound 183] | > 5
37 | CN1CC2CN(C(=O)Nc3nc(-n4cccn4)ccc3N)CC2C1 (stereo not shown) [Compound 184] | > 5
38 | Nc1ccc(-n2cccn2)nc1NC(=O)N1Cc2cc(F)cnc2C1 [Compound 185] | 0.5 to 5
39 | Nc1ccc(-c2ccc(F)cc2)nc1NC(=O)N1Cc2cc(F)cnc2C1 [Compound 186] | 0.5 to 5
40 | COc1ccc(-c2ccc(N)c(NC(=O)N3Cc4cc(F)cnc4C3)n2)cc1 [Compound 187] | 0.5 to 5
41 | Nc1ccc(-c2ccc(F)cc2)nc1NC(=O)N1CC2CC(N3CC(F)C3)CC2C1 (stereo not shown) [Compound 188] | 0.5 to 5
42 | Nc1ccc(-c2ccco2)nc1NC(=O)N1CC2CC(N3CC(F)C3)CC2C1 (stereo not shown) [Compound 189] | > 5

Row | Compound | IC50 [µM]
43 | Nc1ccc(-n2cccn2)nc1NC(=O)N1CC2CC(N3CC(F)C3)CC2C1 (stereo not shown) [Compound 190] | > 5
44 | Nc1ccc(-c2ccccc2)nc1NC(=O)N1CC2CC(NC3COC3)CC2C1 (stereo not shown) [Compound 191] | 0.5 to 5
45 | Nc1ccc(-c2ccc(F)cc2)nc1NC(=O)C1CN(c2ccccn2)C1 [Compound 192] | > 5
46 | Nc1ccc(-c2ccco2)nc1NC(=O)C1CN(c2ccccn2)C1 [Compound 193] | > 5
47 | Nc1ccc(-c2ccccc2)nc1NC(=O)CN1CCn2cncc2C1 [Compound 194] | > 5
48 | Nc1ccc(-c2ccccc2)nc1NC(=O)C1CN(c2ccccn2)C1 [Compound 195] | > 5
49 | CC(=O)N1CCN(CC(=O)Nc2nc(-c3ccccc3)ccc2N)CC1 [Compound 196] | > 5
50 | Nc1ccc(-c2ccccc2)nc1NC(=O)N1CCn2ccnc2C1 [Compound 197] | > 5
51 | Nc1ccc(-c2ccco2)nc1NC(=O)C1CN(Cc2ccccc2)C1 [Compound 198] | > 5
52 | Nc1ccc(-c2ccccc2)nc1NC(=O)N1CC2CN(C3COC3)CC2C1 (stereo not shown) [Compound 199] | > 5
53 | CN1CC2CN(C(=O)Nc3nc(-c4ccc(F)cc4)ccc3N)CC2C1 (stereo not shown) [Compound 201] | > 5
54 | Nc1ccc(-c2ccc(F)cc2)nc1NC(=O)N1CC2CN(C3COC3)CC2C1 (stereo not shown) [Compound 203] | > 5
55 | CN1CC(C(=O)Nc2nc(-c3ccc(F)cc3)ccc2N)C1 [Compound 204] | > 5
56 | Nc1ccc(-n2cccn2)nc1NC(=O)C1CN(Cc2ccccc2)C1 [Compound 205] | > 5
57 | CN1CCn2cc(C(=O)Nc3nc(-c4ccccc4)ccc3N)nc2C1 [Compound 206] | 0.5 to 5
58 | Nc1ccc(-c2ccccc2)nc1NC(=O)c1cn2c(n1)CNCC2 [Compound 208] | 0.5 to 5
59 | CN1CCC2(CC1)CCN(C(=O)Nc1nc(-c3cccnc3)ccc1N)C2 [Compound 210] | > 5
60 | CN1CCCC2(CCN(C(=O)Nc3nc(-c4cccnc4)ccc3N)C2)C1 (stereo not shown) [Compound 211] | > 5
61 | Nc1ccc(-c2ccccc2)nc1NC(=O)N1CCn2cncc2C1 [Compound 212] | > 5
